Laboratory results: the NIST ThermoML archive (doi:10.1016/j.fluid.2011.07.018)

Assay: xn = mol fraction of the nth substance listed
Details: 298.15 K, 101 kPa, Liquid; for speed of sound: Linear variable-path acoustic interferometer; for mass density: Vibrating tube method

Cc1ccccc1[N+](=O)[O-] [2-nitrotoluene] + C1CCOC1
Details | mass density [kg/m3] | speed of sound [m/s]
x2 = 0 | 1155.24 | 2112
x2 = 0.1021 | 1135.24 | 2120
x2 = 0.2146 | 1111.7 | 2034
x2 = 0.3019 | 1092.19 | 1939
x2 = 0.4211 | 1063.58 | 1791
x2 = 0.4509 | 1056.04 | 1754
x2 = 0.521 | 1037.67 | 1677
x2 = 0.6045 | 1014.59 | 1593
x2 = 0.7211 | 979.81 | 1495
x2 = 0.8014 | 953.93 | 1433
x2 = 0.9324 | 907.94 | 1325

Cc1cccc(Cl)c1 [3-chlorotoluene] + C1CCOC1
Details | mass density [kg/m3] | speed of sound [m/s]
x2 = 0 | 1066.01 | 1279
x2 = 0.0662 | 1055.82 | 1293
x2 = 0.1944 | 1036.15 | 1313
x2 = 0.2787 | 1022.98 | 1319
x2 = 0.3891 | 1004.96 | 1324
x2 = 0.5228 | 981.71 | 1325
x2 = 0.6399 | 960.03 | 1320
x2 = 0.7368 | 941.06 | 1313
x2 = 0.7972 | 928.35 | 1307
x2 = 0.8601 | 914.63 | 1300
x2 = 0.9208 | 900.75 | 1290
x2 = 0.945 | 895.28 | 1287
x2 = 0.9739 | 888.4 | 1282

Cc1cccc([N+](=O)[O-])c1 [3-nitrotoluene] + C1CCOC1
Details | mass density [kg/m3] | speed of sound [m/s]
x2 = 0 | 1149.67 | 2100
x2 = 0.0914 | 1132.22 | 2093
x2 = 0.1522 | 1120.11 | 2029
x2 = 0.2026 | 1109.64 | 1969
x2 = 0.3146 | 1085.13 | 1847
x2 = 0.4209 | 1060.02 | 1719
x2 = 0.5476 | 1027.61 | 1588
x2 = 0.6024 | 1012.66 | 1542
x2 = 0.7519 | 968.47 | 1438
x2 = 0.8415 | 939.33 | 1380
x2 = 0.9324 | 907.47 | 1321

Cc1ccc(Cl)cc1 [4-chlorotoluene] + C1CCOC1
Details | mass density [kg/m3] | speed of sound [m/s]
x2 = 0 | 1064.21 | 1296
x2 = 0.0653 | 1054.92 | 1305
x2 = 0.168 | 1040.16 | 1308
x2 = 0.3251 | 1015.77 | 1308
x2 = 0.4558 | 994.13 | 1304
x2 = 0.5489 | 977.7 | 1301
x2 = 0.6335 | 962.01 | 1296
x2 = 0.7021 | 948.73 | 1293
x2 = 0.7609 | 936.9 | 1288
x2 = 0.8226 | 923.96 | 1284
x2 = 0.906 | 905.08 | 1280
x2 = 0.941 | 896.99 | 1277

C1CCOC1 [tetrahydrofuran] + Cc1ccc(Cl)cc1
x1 = 1
Details | mass density [kg/m3] | speed of sound [m/s]
– | 882.09 | 1270

C1CCOC1 [tetrahydrofuran] + Cc1cccc(Cl)c1
x1 = 1
Details | mass density [kg/m3] | speed of sound [m/s]
– | 882.09 | 1270

C1CCOC1 [tetrahydrofuran] + Cc1cccc([N+](=O)[O-])c1
x1 = 1
Details | mass density [kg/m3] | speed of sound [m/s]
– | 882.09 | 1270

C1CCOC1 [tetrahydrofuran] + Cc1ccccc1Cl
x1 = 1
Details | mass density [kg/m3] | speed of sound [m/s]
– | 882.09 | 1270

C1CCOC1 [tetrahydrofuran] + Cc1ccccc1[N+](=O)[O-]
x1 = 1
Details | mass density [kg/m3] | speed of sound [m/s]
– | 882.09 | 1270

C1CCOC1 [tetrahydrofuran] + Clc1ccc(Cl)c(Cl)c1
x1 = 1
Details | mass density [kg/m3] | speed of sound [m/s]
– | 882.09 | 1270

C1CCOC1 [tetrahydrofuran] + Clc1cccc(Cl)c1
x1 = 1
Details | mass density [kg/m3] | speed of sound [m/s]
– | 882.09 | 1270

C1CCOC1 [tetrahydrofuran] + Clc1ccccc1Cl
x1 = 1
Details | mass density [kg/m3] | speed of sound [m/s]
– | 882.09 | 1270
